The text below walks through data of patent US20080139648A1, “Product Containing Prostaglandin Having Fluorine Atom In Its Molecule” (Santen Pharmaceutical Co., Ltd., priority 2004, published 2008).

This data set can be described thus: storage stability test of eye drop in resin container (content by HPLC). It counts as physicochemical. An excerpt: The content of the present prostaglandin derivative refers to the ratio (%) of the concentration of the present prostaglandin derivative existing in the aqueous liquid preparation after a predetermined period of time to the original concentration of the present prostaglandin derivative existing in the aqueous liquid preparation when the prostaglandin-containing product is produced throughout the claims and the specification. For example, in the case where the present prostaglandin derivative is dissolved in water, it refers to the ratio (%) of the concentration of the present prostaglandin derivative existing in the aqueous solution after a predetermined period of time to the concentration of the present prostaglandin derivative dissolved in water.
A 5-ml eye drop resin container was obtained by injection blow molding of a propylene/ethylene random copolymer (containing an ethylene component in an amount of 3%).
The resin container obtained in the section of “2. Production of Resin Container” was subjected to a sterilization treatment with ethylene oxide gas (sterilization with ethylene oxide at a concentration of 20% (v/v), at a temperature of 40° C. and a relative humidity of 50% for 3 hours), and then, in the container, Eye drop 1 obtained in the section of “1. Preparation of Eye Drop” was charged. […] The concentration of the present compound in the container was measured by high performance liquid chromatography before the initiation of storage and after 30-day storage. The content of the present compound was calculated taking the concentration of the present compound at the time of initiation of storage as a standard (100%). Incidentally, each value in Table 1 is expressed as an average of three cases.
Except that the sterilization treatment with ethylene oxide gas was altered into a sterilization treatment with gamma rays (32 kGy), the content of the present compound was calculated in the same manner as in Example 1.
Except that the sterilization treatment with ethylene oxide gas was altered into a sterilization treatment with electron rays (23 kGy), the content of the present compound was calculated in the same manner as in Example 1.
Except that a container with no sterilization treatment was used as the container, the content of the present compound was calculated in the same manner as in Example 1.
Except that Eye drop 1 was altered into Eye drop 2, the content of latanoprost was calculated in the same manner as in Example 1.
Except that Eye drop 1 was altered into Eye drop 2 and the sterilization treatment with ethylene oxide gas was altered into a sterilization treatment with gamma rays (32 kGy), the content of latanoprost was calculated in the same manner as in Example 1. […]

Setting [1] is: sterilized container compared with container with no sterilization treatment.

SMILES strings stand for the structures.

With `CC(C)OC(=O)CCC/C=C\C[C@@H]1[C@@H](CC[C@@H](O)CCc2ccccc2)[C@H](O)C[C@@H]1O` [latanoprost, 13,14-dihydro-17-phenyl-18,19,20-trinor-prostaglandin F2α isopropyl ester], the “content in the eye drop” value (container sterilized with gamma rays, electron rays or ethylene oxide gas) is “did not decrease”. Besides, the “content in the eye drop after a predetermined period of time” value under setting [1] is given as “comparable”.

For the compound `CC(C)OC(=O)CCC/C=C\C[C@@H]1[C@@H](/C=C/C(F)(F)COc2ccccc2)[C@H](O)C[C@@H]1O` [present compound, 16-phenoxy-15-deoxy-15,15-difluoro-17,18,19,20-tetranor-prostaglandin F2α isopropyl ester], the “content in the eye drop after a predetermined period of time” value is given as “higher” (ethylene oxide gas sterilized container in comparison with gamma-ray or electron-ray sterilized container) and “comparable” under setting [1].
